Data set [1] has as its target Gamma-secretase. Briefly: Modulation of gamma-secretase in human SH-SY5Y cells overexpressing wild-type human APP751 assessed as inhibition of Abeta42 level after 24 hrs by ELISA. Type of data set: cell-based.
Data set [2] is described as follows: Kinetic solubility in PBS buffer at pH 7.4 by UV/vis absorbance analysis. Type of data set: physicochemical. The settings on record: read-out: Kinetic_solubility.
Data set [3] in a line: Modulation of gamma-secretase in CHO cells expressing human APP695 assessed as inhibition of Abeta42 level after 20 hrs by FRET HTS assay. Type of data set: cell-based. To be noted: Cricetulus griseus.

Molecules are shown by their SMILES. Values after ≈ are worked out from the molar mass of the structure shown.

As for `Cc1cn(-c2ccc(-c3csc(Nc4c5c(nn4C(C)(C)C)CCC5)n3)cc2F)cn1`, the IC50 in data set [1] worked out at 175 nM.
Same read-out and setting: the value for `Cc1cn(-c2ccc(-c3csc(Nc4c5c(nn4CCF)CCCC5)n3)cc2F)cn1` was 110 nM; that for `Cc1cn(-c2ccc(-c3csc(Nc4c5c(nn4C4CCCC4)CCCC5)n3)cc2F)cn1` was 225 nM.
In the case of `CCn1nc(C(F)(F)F)cc1Nc1nc(-c2ccc(-n3cnc(C)c3)c(F)c2)cs1`, the solubility kinetic in data set [2] is < 1.6 µM. For the same compound, in data set [1], the IC50 came out at 110 nM.
For `COCCn1nc2c(c1Nc1nc(-c3ccc(-n4cnc(C)c4)c(F)c3)cs1)CCCC2`, in that order: 2.3 µM (≈ 1.04 µg/mL) and 272 nM.
Consider `Cc1cn(-c2ccc(-c3csc(Nc4c5c(nn4C(C)C)CCCC5)n3)cc2F)cn1`, for which, in data set [1], the IC50 was 195 nM.
As for `Cc1cn(-c2ccc(-c3csc(Nc4c5c(nn4C4CCN(C)CC4)CCCC5)n3)cc2F)cn1`, the solubility kinetic in data set [2] worked out at 2.8 µM (≈ 1.38 µg/mL). For the same compound, the IC50 in data set [1] was > 1000 nM.
For the compound `Cc1cn(-c2ccc(-c3csc(Nc4c5c(nn4C)CCCC5)n3)cc2F)cn1`, the IC50 in data set [1] stood at 208 nM.
`CCn1nccc1Nc1nc(-c2ccc(-n3cnc(C)c3)c(F)c2)cs1`: in data set [1], the IC50 was > 1000 nM.
On the same count and under the same terms, the result for `CCn1nc(C(C)C)cc1Nc1nc(-c2ccc(-n3cnc(C)c3)c(F)c2)cs1` reads 394 nM; that for `Cc1cn(-c2ccc(-c3csc(Nc4c5c(nn4CCCO)CCCC5)n3)cc2F)cn1`, 229 nM.
Take `Cc1cn(-c2ccc(-c3csc(Nc4c5c(nn4C(C)C)CCC5)n3)cc2F)cn1`: the solubility kinetic in data set [2] was < 1.6 µM. Also, the IC50 in data set [1] was 66 nM.
For `Cc1cn(-c2ccc(-c3csc(Nc4c5c(nn4CCN4CCCCC4)CCCC5)n3)cc2F)cn1`, in that order: 8.1 µM (≈ 4.1 µg/mL) and 475 nM.
In the case of `Cc1cn(-c2ccc(-c3csc(Nc4[nH]nc5c4CCCC5)n3)cc2F)cn1`, in data set [1], the IC50 is > 1000 nM.
Turning to `Cc1cn(-c2ccc(-c3csc(Nc4c5c(nn4CC(C)(C)O)CCCC5)n3)cc2F)cn1`, the solubility kinetic in data set [2] is < 1.6 µM. For the same compound, the IC50 in data set [1] was 55 nM.
Consider `CCn1nc2c(c1N(C)c1nc(-c3ccc(-n4cnc(C)c4)c(F)c3)cs1)CCCC2`, for which the IC50 in data set [1] was > 1000 nM.
Still for that read-out and setting: the result for `Cc1cn(-c2ccc(-c3csc(Nc4c5c(nn4CCN4CCOCC4)CCCC5)n3)cc2F)cn1` reads > 1000 nM.
With `CCn1nc2c(c1Nc1nc(-c3ccc(-n4cnc(C)c4)c(F)c3)cs1)C(C)CC2(C)C` (stereo not drawn), the solubility kinetic in data set [2] came out at 2.6 µM (≈ 1.17 µg/mL). For the same compound, the IC50 in data set [1] is 49 nM.
For `Cc1cn(-c2ccc(-c3csc(Nc4c5c(nn4CCO)CCC5)n3)cc2F)cn1`, in that order: < 1.6 µM and > 1000 nM.
On to `CCn1nc2c(c1Nc1nc(-c3ccc(-n4cnc(C)c4)c(F)c3)cs1)CCCCC2`, for which the IC50 in data set [1] was 114 nM.
Take `Cc1cn(-c2ccc(-c3csc(Nc4c5c(nn4C4CCC4)CCCC5)n3)cc2F)cn1`: the solubility kinetic in data set [2] is < 1.6 µM. Also, in data set [1], the IC50 was 112 nM.
`Cc1cn(-c2ccc(-c3csc(Nc4cc(C(C)(C)C)nn4CC(F)(F)F)n3)cc2F)cn1`: in data set [2], the solubility kinetic is < 1.6 µM. For the same compound, the IC50 in data set [1] is 87 nM.
For `CCn1nc2c(c1Nc1nc(-c3ccc(-n4cnc(C)c4)c(F)c3)cs1)CCC2`, in that order: < 1.6 µM and 41 nM.
Regarding `Cc1cn(-c2ccc(-c3csc(Nc4cc(C(C)(C)C)nn4C(C)C)n3)cc2F)cn1`, in data set [1], the half-maximal inhibitory concentration (IC50) worked out at 87 nM.
Consider `Cc1cn(-c2ccc(-c3csc(Nc4c5c(nn4C4CCCCC4)CCCC5)n3)cc2F)cn1`, for which the IC50 in data set [1] was found to be 280 nM.
Still for that read-out and setting: the result for `CCn1nc2c(c1Nc1nc(-c3ccc(-n4cnc(C)c4)c(F)c3)cs1)CCCC2` reads 163 nM; that for `Cc1cn(-c2ccc(-c3csc(Nc4c5c(nn4C4CCOC4)CCCC5)n3)cc2F)cn1` (stereo not drawn), 289 nM.
On to `CCn1nc(C2(C)CC2)cc1Nc1nc(-c2ccc(-n3cnc(C)c3)c(F)c2)cs1`, for which the solubility kinetic in data set [2] is < 1.6 µM. In data set [1], the 50% inhibitory concentration (IC50) is 67 nM.
As for `Cc1cn(-c2ccc(-c3csc(Nc4c5c(nn4CCO)CCCC5)n3)cc2F)cn1`, the solubility kinetic in data set [2] amounted to 15 µM (≈ 6.58 µg/mL). Moreover, the IC50 in data set [1] is 362 nM.
For the compound `CCc1cc(Nc2nc(-c3ccc(-n4cnc(C)c4)c(F)c3)cs2)c(C)cc1C`, the IC50 in data set [3] is 10 nM.
On to `Cc1cn(-c2ccc(-c3csc(Nc4cc(C(F)(F)F)nn4C(C)(C)C)n3)cc2F)cn1`, for which the IC50 in data set [1] came to 121 nM.
For the compound `Cc1cn(-c2ccc(-c3csc(Nc4c5c(nn4CCCN4CCOCC4)CCCC5)n3)cc2F)cn1`, the solubility kinetic in data set [2] was found to be 16 µM (≈ 8.35 µg/mL). The concentration for half-maximal inhibition (IC50) in data set [1] amounted to 270 nM.
On to `Cc1cn(-c2ccc(-c3csc(Nc4c5c(nn4C4CCOCC4)CCCC5)n3)cc2F)cn1`, for which the IC50 in data set [1] was determined as 766 nM.
Still for that read-out and setting: the value for `Cc1cn(-c2ccc(-c3csc(Nc4c5c(nn4CC(F)(F)F)CCCC5)n3)cc2F)cn1` was 179 nM.
In the case of `Cc1cn(-c2ccc(-c3csc(Nc4cc(C(C)(C)C)nn4C(C)(C)C)n3)cc2F)cn1`, the solubility kinetic in data set [2] worked out at 2 µM (≈ 0.905 µg/mL). Besides, the half-inhibitory concentration (IC50) in data set [1] came to 85 nM.
Regarding `Cc1cn(-c2ccc(-c3csc(Nc4cc(C(F)(F)F)nn4CC(F)(F)F)n3)cc2F)cn1`, in data set [1], the 50% inhibitory concentration (IC50) is 771 nM.
Same read-out and setting: the result for `CCCn1nc2c(c1Nc1nc(-c3ccc(-n4cnc(C)c4)c(F)c3)cs1)CCCC2` reads 148 nM; that for `Cc1cn(-c2ccc(-c3csc(Nc4c5c(nn4C(C)(C)C)CCCC5)n3)cc2F)cn1`, 216 nM; that for `Cc1cn(-c2ccc(-c3csc(Nc4c5c(nn4C)CCC5)n3)cc2F)cn1`, > 1000 nM.
On to `Cc1cn(-c2ccc(-c3csc(Nc4cc(C(C)(C)C)nn4C)n3)cc2F)cn1`, for which, in data set [1], the half-inhibitory concentration (IC50) turned out to be 294 nM.
For `CCn1nc2c(c1Nc1nc(-c3ccc(-n4cnc(C)c4)c(F)c3)cs1)CCC2(C)C`, the solubility kinetic in data set [2] is 2.1 µM (≈ 0.917 µg/mL). Besides, in data set [1], the half-maximal inhibitory concentration (IC50) came to 62 nM.
For `Cc1cn(-c2ccc(-c3csc(Nc4c5c(nn4CC(F)(F)F)CCC5)n3)cc2F)cn1`, in that order: < 1.6 µM and 94 nM.
In the same order, the values of `Cc1cn(-c2ccc(-c3csc(Nc4c5c(nn4C4CCC4)CCC5)n3)cc2F)cn1` are < 1.6 µM and 92 nM.
In the same order, the values of `CCCn1nc(C(C)(C)C)cc1Nc1nc(-c2ccc(-n3cnc(C)c3)c(F)c2)cs1` are < 1.6 µM and 86 nM.

Source of the values: ChEMBL document CHEMBL4428049, “Design and synthesis of aminothiazole modulators of the gamma-secretase enzyme” (Bioorg Med Chem Lett, 2016).
